Measured values reported in a compilation of properties of binary mixtures (doi:10.1016/j.molliq.2017.05.115).

Test: xn = mol fraction of the nth substance listed
Details: 101 kPa

CC[n+]1ccn(C)c1.COS(=O)(=O)[O-] + CCCCCCCO
speed of sound [m/s]
Details	x1 = 0.0836	x1 = 0.1703	x1 = 0.2602	x1 = 0.3537	x1 = 0.4508	x1 = 0.5518	x1 = 0.657	x1 = 0.7665	x1 = 0.8808
298.15 K	1330.6	1341.3	1357.7	1380.4	1410.5	–	1499.2	–	1646.1
303.15 K	1319.6	1330.5	1346.9	1369.7	1399.9	1438.8	1488.8	–	1636.2
308.15 K	1299.7	1310.5	1327	–	1380.2	1419.4	1469.8	1534.7	1619.5
